This is an account of results in article PMC6194685, “The antityrosinase and antioxidant activities of flavonoids dominated by the number and location of phenolic hydroxyl groups” (Chinese Medicine, 2018).

Assay [1] is described as follows: Superoxide free radical scavenging activity (pyrogallol self-oxidation). The note with it: n = 3; read-out: IC50, superoxide free radical scavenging capacity. The procedure: According to the references of Shen et al., superoxide free radical scavenging capacity was measured using Varioskan Flash multifunction microplate reader (Thermo scientific, USA) and 96 wells plates. Each well was added 264 μL PBS buffer (pH = 8.2), 12 μL samples of different concentrations, 25 °C for 10 min. Then 24 μL of 1.25 mmoL/L pyrogallol solution was added and shaken 3 s quickly. The blank group is ethanol. Absorbance values were measured every 30 s. The reaction lasted 5 min in 37 °C. The wavelength used was 320 nm. Each sample was measured in triplicate and averaged. The slope is the self-oxidation rate of pyrogallol. The lower slope indicated the better superoxide free radicals scavenging capacity. Each sample was examined in three times and averaged. The inhibitory rate was examined according to the formula:5 Superoxidefreeradicalscavengingactivity%=SC-SS/SC×100% where SC is the slope value without samples and SS is the slope value with samples.

Assay [2] can be described thus: ABTS free radical scavenging activity. As to conditions: n = 3; read-out: IC50, ABTS free radical scavenging capacity. The procedure: According to the references of Wan et al., ABTS free radical scavenging capacity was measured. […] ABTS ^+ was produced by reacting 2.45 mmol/L potassium persulfate (K2S2O8) with the ABTS stock solution. The reaction lasted 12–16 h at room temperature in the dark. […] Samples (0.5 mL) were added to ABTS^+ (5 mL) for 6 min. The control group contains 0.5 mL of ethanol and 5 mL of ABTS^+ solution. Each sample was examined in three times and averaged.

The nature of assay [3]: DPPH free radical scavenging activity. The note with it: n = 3; read-out: IC50, DPPH free radical scavenging capacity. The protocol:
According to the references of Lee et al., DPPH free radical scavenging capacity was measured. […] In room temperature and a dark environment, the reaction lasted 30 min. […] Each sample was examined in three times and averaged.
In general terms: Loss of DPPH colour is used to gauge radical scavenging.

Assay [4] can be described thus: Hydroxyl free radical scavenging activity. As to conditions: n = 3; read-out: IC50, hydroxyl free radical scavenging capacity.
Experimental: In the tube, 0.2 mL of samples, 1 mL of PBS buffer (pH = 7.4),0.2 mL of 5 mmol/L phenanthroline, 0.2 mL of 7.5 mmol/L FeSO4, 0.2 mL of 0.05% H2O2, 3.2 mL of ethanol were added in turn for 20 min in 37 °C. The wavelength used was 536 nm. Each sample was examined in three times and averaged. The hydroxyl free radical scavenging activity was examined according to the formula:4 Hydroxylfreeradicalscavengingactivity%=AC-AS/AC×100% where AS is the absorbance value with samples and AC is the absorbance value without samples.
For assay [5], the system named is lipid peroxidation in rat liver mitochondria. The experiment in a line: Lipid peroxidation assay in liver mitochondria in vitro (Fe2+/vitamin C). It is filed as biochemical, Sprague–Dawley (SD) rats. The note with it: n = 3, read-out: IC50, inhibiting lipid peroxidation. The protocol: Using the diagnostic kits from Biyuntian (Shanghai, China), liver mitochondria were obtained. The liver mitochondria from Sprague–Dawley (SD) rats were obtained, according to the references of Zuo et al.. In the tubes, 1 mL of mitochondria liquid, 0.5 mL of antioxidant solution, 0.25 mL of 1 mM Vitamin C, and 0.25 mL of 0.1 mM Fe^2+ were added in turn. The positive control group contains 0.5 mL of 0.05 M PBS buffer, instead of the antioxidant solution. The blank group was added 1 mL of mitochondrial liquid and 1 mL of 0.05 M PBS buffer. […] The test tubes were placed in the water for 30 min at 95 °C, then centrifuged for 10 min at 1372g. The wavelength used was 532 nm. Each sample was examined in three times and averaged.

The target of assay [6] is T1, mushroom tyrosinase (Agaricus bisporus, UniProt C7FF04). The experiment in a line: Determination of the inhibition type and inhibition constant (Lineweaver–Burk plots). It is filed as biochemical. The note with it: plots of enzyme activity versus enzyme concentration, oxidation of L-DOPA.
T1 sequence (C7FF04 2-392): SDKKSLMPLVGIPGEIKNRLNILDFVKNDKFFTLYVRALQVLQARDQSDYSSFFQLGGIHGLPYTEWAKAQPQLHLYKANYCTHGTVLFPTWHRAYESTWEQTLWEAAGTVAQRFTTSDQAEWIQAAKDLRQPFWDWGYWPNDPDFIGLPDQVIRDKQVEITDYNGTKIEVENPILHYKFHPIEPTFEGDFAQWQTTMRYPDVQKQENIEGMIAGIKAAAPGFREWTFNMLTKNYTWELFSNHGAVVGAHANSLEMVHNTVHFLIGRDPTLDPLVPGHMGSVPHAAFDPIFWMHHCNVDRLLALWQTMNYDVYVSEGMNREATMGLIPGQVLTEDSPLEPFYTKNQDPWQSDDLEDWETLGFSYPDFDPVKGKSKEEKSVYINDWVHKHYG
T1 sequence (G1K3P4 1-150 partner): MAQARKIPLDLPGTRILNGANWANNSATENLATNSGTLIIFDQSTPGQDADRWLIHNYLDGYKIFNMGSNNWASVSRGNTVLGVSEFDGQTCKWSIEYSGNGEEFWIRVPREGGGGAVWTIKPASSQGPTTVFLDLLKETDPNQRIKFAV
Assay [7] deals with T1, mushroom tyrosinase. The assay is described as above. It counts as biochemical. The note with it: for inhibition type: Lineweaver–Burk double-reciprocal plots, tyrosinase diphenolase; for KIS (inhibitor binding with enzyme–substrate complex): plot of vertical intercept (1/Vmapp) versus inhibitor concentration, oxidation of L-DOPA. The protocol: By Lineweaver–Burk plot, the inhibition type was assayed. The inhibition constant was assayed by the second plots of the apparent Km/Vmapp or 1/Vmapp versus the concentration of the inhibitor.

The conditions of assay [8]: discussion; no reference given; cited from earlier work.
For assay [9] the following is noted: discussion; no reference given; cited from earlier work. The source holds these as a separate data set.
On the set-up of assay [10]: method as in Xu [31]. As to conditions: ref Xu [31]; cited from earlier work.
On the set-up of assay [11]: method as in Xu [31]. As to conditions: ref Xu [31]; cited from earlier work. This is another data set of the same source.
Details of assay [12]: method as in Xu [31]. As to conditions: ref Xu [31]; cited from earlier work. The source holds these as a separate data set.

The IC50 is the point on the concentration scale where inhibition reaches its midpoint. In the case of `O=C(/C=C/c1ccc(O)c(O)c1)O[C@H](Cc1ccc(O)c(O)c1)C(=O)O` [Rosmarinic acid], the IC50 worked out at 12.3 µM in assay [1]; 6.82 µM in [2]; 28.5 µM in assay [3]; 8.3 µM in [4]; 8.33 µM in assay [5]. Further, in assay [6], the “inhibitory mechanism (reversibility)” value is on record as “reversible inhibitors”. For the same compound, the inhibition type entry in [7] is “same inhibitor type as shikonin”. Besides, the “KIS (inhibitor binding with enzyme–substrate complex)” value in [7] was 29.8 µM.
Turning to Isoeugenol, the IC50 stood at 38.2 µM in [1]; 36.4 µM in [2]; 102 µM in assay [3]; 32.5 µM in assay [4]; 25.1 µM in assay [5]. Moreover, the “inhibitory mechanism (reversibility)” value in assay [6] was “reversible inhibitors”. In addition, the inhibition type result in assay [7] is given as “same inhibitor type as shikonin”. Further, the “KIS (inhibitor binding with enzyme–substrate complex)” value in assay [7] is 64.7 µM.
Turning to `O=c1cc(-c2ccccc2)oc2cc(O)c(O)c(O)c12` [Baicalein], the concentration for half-maximal inhibition (IC50) in [1] came out at 16.1 µM; in assay [2], 9.09 µM; in assay [3], 58.6 µM; in assay [4], 11.6 µM; in [5] it was 12.5 µM. The “inhibitory mechanism (reversibility)” value in assay [6] was “reversible inhibitors”. The inhibition type result in assay [7] is listed as “same inhibitor type as shikonin”. Besides, in assay [7], the “KIS (inhibitor binding with enzyme–substrate complex)” value was determined as 38.4 µM.
Take `CC(C)=CCCC1=CC(=O)c2c(O)ccc(O)c2C1=O` [deoxy-shikonin]: in assay [8], the “maximum inhibition, DPPH-radical scavenging assay” value was 0.440%.
As to `CC(C)=CC[C@@H](O)C1=CC(=O)c2c(O)ccc(O)c2C1=O` [Shikonin], the reducing ability in assay [9] is recorded as 0.431%. Further, the IC50 came to 31.5 µM in assay [1]; 27.3 µM in assay [2]; 83.2 µM in assay [3]; 18.3 µM in [4]; 16.7 µM in assay [5]. The “inhibitory mechanism (reversibility)” value in assay [6] is listed as “reversible inhibitor”. Besides, the inhibition type result in [7] is reported as “competitive–uncompetitive mixed type inhibitor”. The “KIS (Fig. 3c)” value in [7] (plot of intercept versus concentration of shikonin) stood at 48.6 µmol/L. Also, the “KIS (inhibitor binding with enzyme–substrate complex)” value in assay [7] is 48.6 µM.
On to `O=C1c2c(O)cc(O)cc2O[C@H](c2cc(O)c(O)c(O)c2)[C@H]1O` [Dihydromyricetin], for which, in assay [10], the “scavenging capacity of superoxide radical (O2·)” value is reported as 90.0%. For the same compound, the half-maximal inhibitory concentration (IC50) in [1] was 7.6 µM; in assay [2], 3.41 µM; in assay [3], 12.4 µM; in [4] it was 4.2 µM; in assay [5] it was 6.25 µM. In assay [6], the “inhibitory mechanism (reversibility)” value was “reversible inhibitors”. The “scavenging capacity of hydroxyl radical (·OH)” value in assay [11] is given as 83.9%. Also, the “scavenging capacity of alkane radical (ROO·)” value in assay [12] is given as 63.9%. Besides, the inhibition type entry in [7] was “same inhibitor type as shikonin”. The “KIS (inhibitor binding with enzyme–substrate complex)” value in assay [7] was 23.6 µM.
